The values that follow come from publication PMC8237569 (Proceedings of the National Academy of Sciences of the …, 2021).

The subject of one data set is F-ATP synthase. Particulars: read-out: IC50 against F-ATP synthase; cited from earlier work.
Data set [1] has as its system M. tuberculosis H37Rv (ATCC 27294), wt. Kind of data set: microbe, parasite or virus in culture. In kind it is cell-based. Particulars: Mycobacterium tuberculosis, ATCC27294|H37RV.
Data set [2] relates to NC1=NC2(CCCCC2)N(c2ccc(OCc3cn(CCCCOc4ccc5ccc(=O)oc5c4)nn3)cc2)C(N)=N1. Kind of data set: purified protein, by the assay type. Particulars: pH 7.5.

pIC50: −log10 of the molar value. Converted amounts (≈) assume the structure as drawn. Like-named read-outs stand apart in the source and are kept apart here.

As a reminder, the pIC50 is −log10 of the IC50, conventionally taken in molar units. In general, Km refers to the concentration of substrate that gives half-maximal velocity.

On to `COc1nc2ccc(Br)cc2cc1[C@@H](c1ccccc1)[C@@](O)(CCN(C)C)c1cccc2ccccc12` [Bedaquiline], for which the pIC50 in the data set on F-ATP synthase was 8.60.

Turning to `NNC(=O)c1ccncc1` [INH, isoniazid], in data set [1], the MIC50 is 400 nM (≈ 0.0549 µg/mL).

In turn, `Nc1ccc(C(=O)O)c(O)c1` [PAS, para-aminosalicylic acid] displayed an MIC50 in data set [1] of 200 nM (≈ 0.0306 µg/mL).

Turning to `O=[N+]([O-])c1cn2c(n1)OC[C@@H](OCc1ccc(OC(F)(F)F)cc1)C2` [PTM, pretomanid], the MIC50 in data set [1] stood at 200 nM (≈ 0.0719 µg/mL).

Turning to `CO[C@H]1/C=C/O[C@@]2(C)Oc3c(C)c(O)c4c(O)c(c(/C=N/N5CCN(C)CC5)c(O)c4c3C2=O)NC(=O)/C(C)=C\C=C\[C@H](C)[C@H](O)[C@@H](C)[C@@H](O)[C@@H](C)[C@H](OC(C)=O)[C@@H]1C` [RIF, rifampicin], the MIC50 in data set [1] (read-out: MIC50, RIF (nM)) worked out at 1.6 nM (≈ 0.00132 µg/mL).

For the compound “Ddn (Rv3547) (Mycobacterium tuberculosis H37Rv)”, the Km in data set [2] came to 3.47 ± 0.51 µM.
